Laboratory results published in patent US11236045B2, “Substituted sulfoximine compounds” (CADILA HEALTHCARE LIMITED, priority 2017, dated 2022).
pIC50: −log10 of the molar value.

The compounds below were run on IL-1β (assay: In vitro IL-1β inhibition in PMA-differentiated, LPS-primed, ATP-stimulated THP1 cells). Conditions: Homo sapiens, THP-1; THP1 monocytes differentiated with PMA, primed with 500 ng/ml LPS 4 hrs, compound 30 min, 5 mM ATP 1 hr; IL-1b in supernatant; read-out: in vitro IL-1β inhibitory activity IC50.
Type: cell-based
Method: THP1 ([…]) monocytes were differentiated with PMA (Phorbol 12-myristate 13-acetate) (100 ng/ml) and incubated at 37° C. for 20 h in presence of 5% CO2. 2×10^5 differentiated cells were plated per well of 96 well tissue culture plates. The cells were primed using 500 ng/ml Lipopolysaccharide and incubating for 4 hrs under the same condition. The cells were then treated with various concentrations of the compounds for 30 min followed by treatment with 5 mM ATP for 1 hr. The supernatants were collected and analysed by IL-1b (Mabtech Cat #3415-1H-20) or TNF-a (Mabtech; Cat #3510-1H-20) detection kit. The data were analyzed using GraphPad Prism V7.0. Dose Response Curve (DRC) was constructed to determine the IC50 value by fitting percentage cell survival data to the GraphPad Prism using nonlinear regression analysis.

Point of comparison: `N#CN=S(=O)(NC(=O)Nc1c2c(cc3c1CCC3)CCC2)c1cccc([N+](=O)[O-])c1` (centres unmarked) [Example 18, N′-cyano-N-((1,2,3,5,6,7-hexahydro-s-indacen-4-yl)carbamoyl)-3-nitrobenzenesulfonimidamide], pIC50 7.82. Against it:
- CC(C)(O)c1cncc(S(=O)(=NC#N)NC(=O)Nc2c3c(cc4c2CCC4)CCC3)c1 (centres unmarked) [Example 65, N′-cyano-N-((1,2,3,5,6,7-hexahydro-s-indacen-4-yl)carbamoyl)-5-(2-hydroxypropan-2-yl)pyridine-3-sulfonimidamide] — 1.08 log units higher, 8.90
- N#CN=S(=O)(NC(=O)Nc1c2c(cc3c1CCC3)CCC2)c1cccc(F)c1 (centres unmarked) [Example 58, N′-cyano-3-fluoro-N-((1,2,3,5,6,7-hexahydro-s-indacen-4-yl)carbamoyl)benzenesulfonimidamide] — 0.40 log units lower, 7.42
- N#CN=S(=O)(NC(=O)Nc1c2c(cc3c1CCC3)CCC2)c1cccs1 (centres unmarked) [Example 51, N′-cyano-N-((1,2,3,5,6,7-hexahydro-s-indacen-4-yl)carbamoyl)thiophene-2-sulfonimidamide] — within 0.2 log units, 7.72
- N#CN=S(=O)(NC(=O)Nc1c2c(cc3c1CCC3)CCC2)c1cc(F)cc(F)c1 (centres unmarked) [Example 44, N′-cyano-3,5-difluoro-N-((1,2,3,5,6,7-hexahydro-s-indacen-4-yl)carbamoyl)benzenesulfonimidamide] — 0.62 log units lower, 7.20
- N#CN=S(=O)(NC(=O)Nc1c2c(cc3c1CCC3)CCC2)c1ccc(F)cc1F (centres unmarked) [Example 45, N′-cyano-2,4-difluoro-N-((1,2,3,5,6,7-hexahydro-s-indacen-4-yl)carbamoyl)benzenesulfonimidamide] — within 0.2 log units, 7.64
- N#CN=S(=O)(NC(=O)Nc1c2c(cc3c1CCC3)CCC2)c1ccc(C2(O)COC2)cc1 (centres unmarked) [Example 35, N′-cyano-N-((1,2,3,5,6,7-hexahydro-s-indacen-4-yl)carbamoyl)-4-(3-hydroxyoxetan-3-yl)benzenesulfonimidamide] — within 0.2 log units, 7.89
- N#CN=S(=O)(NC(=O)Nc1c2c(cc3c1CCC3)CCC2)c1ccc(C(F)(F)F)cc1 (centres unmarked) [Example 29, N′-cyano-N-((1,2,3,5,6,7-hexahydro-s-indacen-4-yl)carbamoyl)-4-(trifluoromethyl)-benzenesulfonimidamide] — 0.33 log units lower, 7.49
- COc1ccc(S(=O)(=NC#N)NC(=O)Nc2c3c(cc4c2CCC4)CCC3)cc1 (centres unmarked) [Example 19, N′-cyano-N-((1,2,3,5,6,7-hexahydro-s-indacen-4-yl)carbamoyl)-4-methoxybenzenesulfonimidamide] — within 0.2 log units, 7.64
- N#CN=S(=O)(NC(=O)Nc1c2c(cc3c1CCC3)CCC2)c1ccc2c(c1)OCCO2 (centres unmarked) [Example 40, N′-cyano-N-((1,2,3,5,6,7-hexahydro-s-indacen-4-yl)carbamoyl)-2,3-dihydrobenzo[b][1,4]dioxine-6-sulfonimidamide] — within 0.2 log units, 7.89
- COc1ccc(S(=O)(=NC#N)NC(=O)Nc2c3c(cc4c2CCC4)CCC3)cc1OC (centres unmarked) [Example 52, N′-cyano-N-((1,2,3,5,6,7-hexahydro-s-indacen-4-yl)carbamoyl)-3,4-dimethoxybenzene-sulfonimidamide] — 0.54 log units higher, 8.36
- N#CN=S(=O)(Cc1ccc(C#N)cc1)NC(=O)Nc1c2c(cc3c1CCC3)CCC2 (centres unmarked) [Example 66, N′-cyano-1-(4-cyanophenyl)-N-((1,2,3,5,6,7-hexahydro-s-indacen-4-yl)carbamoyl)-methanesulfonimidamide] — 0.58 log units higher, 8.40
- COc1cccc(S(=O)(=NC#N)NC(=O)Nc2c3c(cc4c2CCC4)CCC3)c1 (centres unmarked) [Example 38, N′-cyano-N-((1,2,3,5,6,7-hexahydro-s-indacen-4-yl)carbamoyl)-3-methoxybenzenesulfonimidamide] — within 0.2 log units, 7.77
- N#CN=S(=O)(NC(=O)Nc1c2c(cc3c1CCC3)CCC2)c1ccc(Br)s1 (centres unmarked) [Example 37, 5-bromo-N′-cyano-N-((1,2,3,5,6,7-hexahydro-s-indacen-4-yl)carbamoyl)thiophene-2-sulfonimidamide] — 0.43 log units higher, 8.25
- CC(C)(O)c1coc(S(=O)(=NC#N)NC(=O)Nc2c3c(cc4c2CCC4)CCC3)c1 (centres unmarked) [Example 39, N′-cyano-N-((1,2,3,5,6,7-hexahydro-s-indacen-4-yl)carbamoyl)-4-(2-hydroxypropan-2-yl)furan-2-sulfonimidamide] — 0.66 log units higher, 8.48
- Cc1ccc(F)c(S(=O)(=NC#N)NC(=O)Nc2c3c(cc4c2CCC4)CCC3)c1 (centres unmarked) [Example 42, N′-cyano-2-fluoro-N-((1,2,3,5,6,7-hexahydro-s-indacen-4-yl)carbamoyl)-5-methylbenzene-sulfonimidamide] — 0.80 log units higher, 8.62
- CC(C)(O)c1ccc(S(=O)(=NC#N)NC(=O)Nc2c3c(cc4c2CCC4)CCC3)s1 (centres unmarked) [Example 41, N′-cyano-N-((1,2,3,5,6,7-hexahydro-s-indacen-4-yl)carbamoyl)-5-(2-hydroxypropan-2-yl)thiophene-2-sulfonimidamide] — 0.50 log units higher, 8.32
- C=C(C)c1coc(S(=O)(=NC#N)NC(=O)Nc2c3c(cc4c2CCC4)CCC3)c1 (centres unmarked) [Example 36, N′-cyano-N-((1,2,3,5,6,7-hexahydro-s-indacen-4-yl)carbamoyl)-4-(prop-1-en-2-yl)furan-2-sulfonimidamide] — 0.33 log units lower, 7.49
- CC(C)(O)c1cccc(S(=O)(=NC#N)NC(=O)Nc2c3c(cc4c2CCC4)CCC3)c1 (centres unmarked) [Example 34, N′-cyano-N-((1,2,3,5,6,7-hexahydro-s-indacen-4-yl)carbamoyl)-3-(2-hydroxypropan-2-yl)benzenesulfonimidamide] — 0.70 log units higher, 8.52
- N#CN=S(=O)(NC(=O)Nc1c2c(cc3c1CCC3)CCC2)c1cccc(C(O)(C(F)(F)F)C(F)(F)F)c1 (centres unmarked) [Example 43, N′-cyano-3-(1,1,1,3,3,3-hexafluoro-2-hydroxypropan-2-yl)-N-((1,2,3,5,6,7-hexahydro-s-indacen-4-yl)carbamoyl)benzenesulfonimidamide] — 0.25 log units lower, 7.57
- CC(C)(O)c1cc(S(=O)(=NC#N)NC(=O)Nc2c3c(cc4c2CCC4)CCC3)ccc1F (centres unmarked) [Example 63, N′-cyano-4-fluoro-N-((1,2,3,5,6,7-hexahydro-s-indacen-4-yl)carbamoyl)-3-(2-hydroxypropan-2-yl)benzenesulfonimidamide] — 0.29 log units higher, 8.11
- CC(C)(O)c1ccc(F)c(S(=O)(=NC#N)NC(=O)Nc2c3c(cc4c2CCC4)CCC3)c1 (centres unmarked) [Example 64, N′-cyano-2-fluoro-N-((1,2,3,5,6,7-hexahydro-s-indacen-4-yl)carbamoyl)-5-(2-hydroxypropan-2-yl)benzenesulfonimidamide] — 0.29 log units higher, 8.11
- N#CN=S(=O)(NC(=O)Nc1c2c(cc3c1CCC3)CCC2)c1ccc(Br)cc1 (centres unmarked) [Example 27, 4-bromo-N′-cyano-N-((1,2,3,5,6,7-hexahydro-s-indacen-4-yl)carbamoyl)benzenesulfonimidamide] — 0.25 log units lower, 7.57
- COc1ccc(S(=O)(=NC#N)NC(=O)Nc2c3c(cc4c2CCC4)CCC3)cn1 (centres unmarked) [Example 24, N′-cyano-N-((1,2,3,5,6,7-hexahydro-s-indacen-4-yl)carbamoyl)-6-methoxypyridine-3-sulfonimidamide] — 0.35 log units lower, 7.47
- N#CN=S(=O)(Cc1ccccc1)NC(=O)Nc1c2c(cc3c1CCC3)CCC2 (centres unmarked) [Example 48, N′-cyano-N-((1,2,3,5,6,7-hexahydro-s-indacen-4-yl)carbamoyl)-1-phenylmethanesulfonimidamide] — 0.64 log units higher, 8.46
- N#CN=S(=O)(NC(=O)Nc1c2c(cc3c1CCC3)CCC2)c1ccc(F)cc1 (centres unmarked) [Example 21, N′-cyano-4-fluoro-N-((1,2,3,5,6,7-hexahydro-s-indacen-4-yl)carbamoyl)benzenesulfonimidamide] — 0.61 log units lower, 7.21
- Cc1cccc(S(=O)(=NC#N)NC(=O)Nc2c3c(cc4c2CCC4)CCC3)n1 (centres unmarked) [Example 53, N′-cyano-N-((1,2,3,5,6,7-hexahydro-s-indacen-4-yl)carbamoyl)-6-methylpyridine-2-sulfonimidamide] — 0.47 log units lower, 7.35
- N#CN=S(=O)(NC(=O)Nc1c2c(cc3c1CCC3)CCC2)c1ccc(Cl)cc1 (centres unmarked) [Example 26, 4-chloro-N′-cyano-N-((1,2,3,5,6,7-hexahydro-s-indacen-4-yl)carbamoyl)benzenesulfonimidamide] — within 0.2 log units, 7.64
- CC(C)(O)c1ccc(S(=O)(=NC#N)NC(=O)Nc2c3c(cc4c2CCC4)CCC3)cc1 (centres unmarked) [Example 17, N′-cyano-N-((1,2,3,5,6,7-hexahydro-s-indacen-4-yl)carbamoyl)-4-(2-hydroxypropan-2-yl)benzenesulfonimidamide] — within 0.2 log units, 7.92
